Values of other authors as cited in doi:10.1101/2023.05.15.540887, “Comparative analysis of drug-like EP300/CREBBP acetyltransferase inhibitors” (bioRxiv, 2023).

Assays:
Parameters in all cases: method as in ref 29 (a number printed in a supplementary file, which may have a reference list of its own: not looked up in the article's list)
MALME-3M = conditions: Melanoma MALME-3M; highest log conc -4.0; NCI-60 screen data; cited from earlier work
LOXIMVI = conditions: Melanoma LOXIMVI; highest log conc -4.0; NCI-60 screen data; cited from earlier work
NCI/ADR-RES = conditions: Ovarian NCI/ADR-RES; highest log conc -4.0; NCI-60 screen data; cited from earlier work
SK-MEL-2 = conditions: Melanoma SK-MEL-2; highest log conc -4.0; NCI-60 screen data; cited from earlier work
SF-268 = conditions: CNS SF-268; highest log conc -4.0; NCI-60 screen data; cited from earlier work
U251 = conditions: CNS U251; highest log conc -4.0; NCI-60 screen data; cited from earlier work
SR = conditions: Leukemia SR; highest log conc -4.0; NCI-60 screen data; cited from earlier work
NCI-H522 = conditions: Non-SmallCellLung NCI-H522; highest log conc -4.0; NCI-60 screen data; cited from earlier work
RPMI-8226 = conditions: Leukemia RPMI-8226; highest log conc -4.0; NCI-60 screen data; cited from earlier work
ACHN = conditions: Renal ACHN; highest log conc -4.0; NCI-60 screen data; cited from earlier work
PC-3 = conditions: Prostate PC-3; highest log conc -4.0; NCI-60 screen data; cited from earlier work
NCI-H226 = conditions: Non-SmallCellLung NCI-H226; highest log conc -4.0; NCI-60 screen data; cited from earlier work
BT-549 = conditions: Breast BT-549; highest log conc -4.0; NCI-60 screen data; cited from earlier work
HS578T = conditions: Breast HS578T; highest log conc -4.0; NCI-60 screen data; cited from earlier work
SF-295 = conditions: CNS SF-295; highest log conc -4.0; NCI-60 screen data; cited from earlier work
MDA-MB-468 = conditions: Breast MDA-MB-468; highest log conc -4.0; NCI-60 screen data; cited from earlier work
HT29 = conditions: Colon HT29; highest log conc -4.0; NCI-60 screen data; cited from earlier work
OVCAR-3 = conditions: Ovarian OVCAR-3; highest log conc -4.0; NCI-60 screen data; cited from earlier work
SNB-75 = conditions: CNS SNB-75; highest log conc -4.0; NCI-60 screen data; cited from earlier work
NCI-H322M = conditions: Non-SmallCellLung NCI-H322M; highest log conc -4.0; NCI-60 screen data; cited from earlier work
CCRF-CEM = conditions: Leukemia CCRF-CEM; highest log conc -4.0; NCI-60 screen data; cited from earlier work

COC(=O)N1c2ccc3c(nc(Cc4ccccc4)n3[C@H]3CCC[C@H](C(=O)O)C3)c2CC[C@@H]1C [FT-6876]
GI50 AVGDATA (MALME-3M): -5.21
GI50 AVGDATA (LOXIMVI): -5.99
GI50 AVGDATA (NCI/ADR-RES): -4.19
GI50 AVGDATA (SK-MEL-2): -4.46
GI50 AVGDATA (SF-268): -4.56
GI50 AVGDATA (U251): -4.77
GI50 AVGDATA (SR): -4.86
GI50 AVGDATA (NCI-H522): -4.95
GI50 AVGDATA (RPMI-8226): -5.42
GI50 AVGDATA (ACHN): -4.77
GI50 AVGDATA (PC-3): -5.25
GI50 AVGDATA (NCI-H226): -4.85
GI50 AVGDATA (BT-549): -4.31
GI50 AVGDATA (HS578T): -5.49
GI50 AVGDATA (SF-295): -4.93
GI50 AVGDATA (MDA-MB-468): -5.42
GI50 AVGDATA (HT29): -5.26
GI50 AVGDATA (OVCAR-3): -4.88
GI50 AVGDATA (SNB-75): -6.37
GI50 AVGDATA (NCI-H322M): -4.82
GI50 AVGDATA (CCRF-CEM): -5.18

Cc1sc2c(c1C)C(c1ccc(Cl)cc1)=N[C@@H](CC(=O)OC(C)(C)C)c1nnc(C)n1-2 [JQ-1]
GI50 AVGDATA (MALME-3M): -5.32
GI50 AVGDATA (LOXIMVI): -7.17
GI50 AVGDATA (NCI/ADR-RES): -6.4
GI50 AVGDATA (SK-MEL-2): -5.27
GI50 AVGDATA (SF-268): -5.33
GI50 AVGDATA (U251): -5.91
GI50 AVGDATA (SR): -7.35
GI50 AVGDATA (NCI-H522): -7.25
GI50 AVGDATA (RPMI-8226): -7.4
GI50 AVGDATA (ACHN): -6.3
GI50 AVGDATA (PC-3): -5.96
GI50 AVGDATA (NCI-H226): -4.99
GI50 AVGDATA (BT-549): -5.51
GI50 AVGDATA (HS578T): -7.25
GI50 AVGDATA (SF-295): -6.74
GI50 AVGDATA (MDA-MB-468): -6.95
GI50 AVGDATA (HT29): -7.01
GI50 AVGDATA (OVCAR-3): -6.3
GI50 AVGDATA (SNB-75): -7.6
GI50 AVGDATA (NCI-H322M): -6.53
GI50 AVGDATA (CCRF-CEM): -6.11

CO[C@H]1CC[C@H](n2c([C@@H]3CCCC(=O)N3c3ccc(F)c(F)c3)nc3cc(-c4c(C)noc4C)ccc32)CC1 [inobrodib]
GI50 AVGDATA (MALME-3M): -5.76
GI50 AVGDATA (LOXIMVI): -5.38
GI50 AVGDATA (NCI/ADR-RES): -4.87
GI50 AVGDATA (SK-MEL-2): -4.94
GI50 AVGDATA (SF-268): -4.83
GI50 AVGDATA (U251): -4.99
GI50 AVGDATA (SR): -6.12
GI50 AVGDATA (NCI-H522): -5.53
GI50 AVGDATA (RPMI-8226): -6.15
GI50 AVGDATA (ACHN): -5.32
GI50 AVGDATA (PC-3): -5.46
GI50 AVGDATA (NCI-H226): -5.37
GI50 AVGDATA (BT-549): -4.99
GI50 AVGDATA (HS578T): -5.68
GI50 AVGDATA (SF-295): -5.17
GI50 AVGDATA (MDA-MB-468): -5.4
GI50 AVGDATA (HT29): -5.59
GI50 AVGDATA (OVCAR-3): -4.98
GI50 AVGDATA (SNB-75): -7.96
GI50 AVGDATA (NCI-H322M): -4.94
GI50 AVGDATA (CCRF-CEM): -5.33
